Entries after “also recorded” stand apart in the source; their conditions may differ. Peptide text beside a SMILES is read from it. * marks the point of attachment. Cbz = O=C(OCc1ccccc1)*
System: Ub^G76V-GFP reporter (ubiquitin-proteasome system) in transiently transfected cells
Assay: UPS reporter assay (Ub^G76V-GFP, flow cytometry), functionality control with proteasomal inhibitor
Assay type: cell-based
Details: 5 μM MG-132, 24 hours
Description: FIGS. 12A-12C show flow-cytometric analysis of untransfected cells (12A), Ub^G76V-GFP transfected cells (12B), and Ub^G76V-GFP transfected cells treated for 24 hours with 5 μM of the proteasomal inhibitor, MG-132 (12C).
Experiments were conducted during development of embodiments of the present invention to investigate the functional consequences of the mutant ubiquilin2 in protein degradation through the ubiquitin-proteasome system (UPS) was investigated. The UPS reporter substrate Ubiquitin^G76V-Green Fluorescent Protein (Ub^G76V-GFP) was used to test the effects of mutant ubiquilin2 on the ubiquitin-mediated protein degradation. Two mutations at two different sites were tested (P497H and P506T) using the Ub^G76V-GFP reporter system. […]
SH-SYSY and Neuro2a cells were grown in 24-well plates and double-transfected with the UPS reporter (20) vector containing UbG76V-GFP (Addgene plasmid #11941) and a dual expression vector containing DsRed2 with either wild-type or mutant Ubiquilin 2. […] All flow cytometric data were collected and analyzed using a MoFlo cell sorter and Summit software (DakoCytomation, Fort Collins, Colo.). […] At least 500 such events were recorded. […]

## CC(C)C[C@@H](C=O)NC(=O)[C@H](CC(C)C)NC(=O)[C@H](CC(C)C)NC(=O)OCc1ccccc1 [MG-132] (Cbz-Leu-Leu-Leu-aldehyde)
  GFP fluorescence (FL1) intensity / accumulation of the Ub^G76V-GFP signal: marked increase in GFP fluorescence (FL1) intensity; also recorded: remarkable accumulation of the Ub^G76V-GFP signal
